Assay results published in ChEMBL document CHEMBL1133440, “Identification of a chemical tool for the orphan nuclear receptor FXR” (J Med Chem, 2000).

Target: T1, Bile acid receptor (Homo sapiens) (UniProt Q96RI1)
T1 sequence (whole entry): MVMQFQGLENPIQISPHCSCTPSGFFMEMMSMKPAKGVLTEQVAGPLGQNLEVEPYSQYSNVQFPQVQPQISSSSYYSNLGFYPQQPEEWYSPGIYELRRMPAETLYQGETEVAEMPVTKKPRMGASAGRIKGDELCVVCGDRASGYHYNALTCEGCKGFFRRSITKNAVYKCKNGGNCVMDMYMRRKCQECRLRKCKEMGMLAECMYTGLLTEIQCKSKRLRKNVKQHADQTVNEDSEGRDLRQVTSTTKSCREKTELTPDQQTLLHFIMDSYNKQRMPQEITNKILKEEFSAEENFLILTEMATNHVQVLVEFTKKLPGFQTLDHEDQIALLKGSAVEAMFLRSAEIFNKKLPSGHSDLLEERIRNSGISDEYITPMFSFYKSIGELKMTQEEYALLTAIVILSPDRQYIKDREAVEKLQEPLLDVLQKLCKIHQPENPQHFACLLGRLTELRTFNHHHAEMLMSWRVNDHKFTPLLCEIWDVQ

RE: 1.4
Structure (SMILES): CC(C)c1onc(-c2c(Cl)cccc2Cl)c1COc1ccc(/C=C/c2cccc(C(=O)O)c2)c(Cl)c1
